According to publication PMC5118696, “Identification of inhibitors that dually target the new permeability pathway and dihydroorotate dehydrogenase in the blood stage of Plasmodium falciparum” (Scientific Reports, 2016):
Where two headings read alike, the source gives them in different places.

Tests used:
[1] = system: Hyp1-NLuc Plasmodium falciparum-infected erythrocytes (new permeability pathway, NPP); assay: microbe, parasite or virus in culture; conditions: Erythrocyte, 0.33 h, read-out: Mean RLU at 28 min (As % of DMSO control)
[2] = system: Hyp1-NLuc Plasmodium falciparum-infected erythrocytes (new permeability pathway, NPP); assay: microbe, parasite or virus in culture; conditions: Erythrocyte, 0.33 h, read-out: % of control remaining

Compound | activity at 2 µM [1] [%] | activity at 2 µM [2] [%]
COCCNCC(O)Cn1c2ccc(Cl)cc2c2cc(Cl)ccc21 (centres unmarked) [MMV019017] | 105 | 100
FC(F)(F)c1cccc(Nc2nc(-c3ccccc3)nc3ncccc23)c1 [MMV665798] | 103 | 117
Nc1ccc(-c2nc3cc(Oc4ccc(Oc5ccc6[nH]c(-c7ccc(N)cc7)nc6c5)cc4)ccc3[nH]2)cc1 [MMV011895] | 91.2 | 74.5
CCOC(=O)c1cn(CC)c2cc(N(C)CCc3ccc(OC)c(OC)c3)c(F)cc2c1=O [MMV665977] | 106 | 87.8
FC(F)(F)c1ccc(Nc2nnnc3ccccc23)cc1 [MMV665935] | 99.5 | 112
Cc1ccc(-c2cc(C(=O)Nc3ccc(S(=O)(=O)N4CCCCC4)cc3)[nH]n2)c(O)c1 [MMV665906] | 100 | 105
CN(C)CCCNc1c2ccccc2nc2ccccc12 [MMV000448] | 102 | 102
Cc1cc(Nc2cccc(F)c2)nc(NCc2ccccc2)n1 [MMV006319] | 102 | 104
CCn1c(CN2CCN(Cc3ccccc3)CC2)nc2cc(NC(=O)c3cccs3)ccc21 [MMV020439] | 20.1 | 18.4
COc1ccc(C2N(C)c3ccccc3N2C)cc1 [MMV666075] | 109 | 123
COc1ccc(OC)c(C2C3=C(CC(C)(C)CC3=O)N(c3ccc(Cl)c(Cl)c3)C3=C2C(=O)CC(C)(C)C3)c1 [MMV007208] | 102 | 104
OC(CNC1CCCCC1)Cn1c2ccc(I)cc2c2cc(I)ccc21 (centres unmarked) [MMV665882] | 103 | 93.7
CCOc1ccccc1CNC(=O)C1c2ccccc2C(=O)N(CC(C)C)C1c1cccs1 (centres unmarked) [MMV000653] | 105 | 119
CC1CN(C(=O)c2sc3ccccc3c2Cl)CC(C)O1 (centres unmarked) [MMV020492] | 103 | 102
CCCCCCn1c(=N)n(CC(O)COc2cccc(C)c2)c2ccccc21 (centres unmarked) [MMV000445] | 87.2 | 93.8
O=C(Nc1cccc(-c2nc3ccccc3[nH]2)c1)c1cccc(NC(=O)c2ccco2)c1 [MMV665883] | 107 | 102
CCCc1c(C)nc2ccccc2c1O [MMV666081] | 105 | 115
Cc1ccnc(NC(c2cccc(OCc3ccccc3)c2)c2ccc3cccnc3c2O)c1 (centres unmarked) [MMV000720] | 102 | 108
CCN(CC)CCNc1ncnc2c1[nH]c1ccc(Cl)cc12 [MMV396703] | 110 | 99.7
Cc1ccccc1OCCSc1nc2ccc(NC(=O)c3cccs3)cc2s1 [MMV007396] | 104 | 111
CN1CCN(c2nc(Nc3ccc(O)cc3)nc3ccccc23)CC1 [MMV000986] | 102 | 101
CCCCNc1nc(NC(C)(C)C)nc(NC(C)(C)C)n1 [MMV665864] | 119 | 130
COc1ccc(C)c2sc(N(Cc3cccnc3)C(=O)c3ccc(C#N)cc3)nc12 [MMV001241] | 101 | 100
Cc1sc2ncnc(Sc3nc4ccccc4[nH]3)c2c1C [MMV019266] | 109 | 109

Compound | activity at 2 µM [1] [%] | activity at 2 µM [2] [%]
COc1ccc2nc(C)cc(Nc3ccc(Cl)cc3)c2c1 [MMV007875] | 98.8 | 99.5
CCN(CC)CCn1c(=N)n(CC(O)c2ccc(Cl)c(Cl)c2)c2ccccc21 (centres unmarked) [MMV000248] | 97.6 | 98.3
CCCCNCC(O)(c1ccc(Cl)cc1)c1ccc(Cl)cc1 [MMV665929] | 107 | 122
CCOc1ccc2nc(C)cc(Nc3ccc(N(C)C)cc3)c2c1 [MMV007020] | 102 | 102
COc1ccc(CN2CCCC(C(=O)c3ccc(C(F)(F)F)cc3)C2)c(O)c1 (centres unmarked) [MMV666060] | 103 | 114
Cc1ccc(C(=O)c2oc3ccc4c(C)cc(=O)oc4c3c2C)cc1 [MMV086103] | 94.6 | 95.7
COc1ccc(C=C2SC(Nc3ccc(F)cc3)=NC2=O)c(OC)c1 [MMV084434] | 36.5 | 27.1
COc1ccc(C(=O)Nc2ccc(Cl)cc2C(=O)Nc2ccncc2)cc1 [MMV665799] | 100 | 111
COc1ccc(C(=O)C(CCC(CNC(C)(C)C)C(=O)c2ccc(OC)cc2)CNC(C)(C)C)cc1 (centres unmarked) [MMV007591] | 103 | 102
COc1ccc2nc(N)nc(C)c2c1 [MMV665897] | 103 | 93.5
COc1ccc(CCn2c(=N)c(C(=O)NCc3cccnc3)cc3c(=O)n4cccc(C)c4nc32)cc1 [MMV667488] | 105 | 95.6
CN(C)c1ccc(N=Cc2ccc(N3CCOCC3)cc2)cc1 [MMV073843] | 104 | 104
c1ccc(C2=Nc3ccccc3N=C(c3ccccc3)c3ccccc32)cc1 [MMV007113] | 103 | 111
CCOc1cc(CNC(C)C(O)c2ccccc2)cc(Cl)c1OCC (centres unmarked) [MMV396633] | 113 | 114
Oc1ccc2ccccc2c1CNc1nc2ccccc2[nH]1 [MMV011832] | 107 | 102
CN(N=O)C1=C(NC2CCCCC2)C(=O)c2ccccc2C1=O [MMV667492] | 103 | 90.8
O=C(NCC1Cc2cccc(-c3ccncc3)c2O1)c1csc2c1CCCC2 (centres unmarked) [MMV665954] | 104 | 117
CCOC(=O)C1CCN(C(=O)CN2C(=O)c3ccccc3C2c2c[nH]c3ccccc23)CC1 (centres unmarked) [MMV011576] | 107 | 107
CN1c2ccccc2N(C)C1c1ccc2c(c1)OCO2 [MMV666009] | 104 | 114
COc1ccc(CN2CCN(Cc3ccccc3)CC2)c(O)c1 [MMV665944] | 96.8 | 99.6
CCN(CC)CCNc1ncnc2c1[nH]c1ccc(Br)cc12 [MMV006545] | 120 | 110
OC(CNCc1ccccc1)Cn1c2ccccc2c2ccccc21 (centres unmarked) [MMV000839] | 107 | 110
COc1ccc(C=C2SC(=N)N(c3ccccc3OC)C2=O)cc1 [MMV666691] | 61.9 | 26.4
COc1ccc(-c2nonc2NC(=O)c2cccc(Cl)c2)cc1OC [MMV020660] | 108 | 109

Compound | activity at 2 µM [1] [%] | activity at 2 µM [2] [%]
O=C(Cc1ccccc1)NC(c1ccc(Cl)cc1)c1c(O)ccc2ccccc12 (centres unmarked) [MMV665972] | 68.8 | 69.4
COc1cc(C(=O)Nc2nc3c(cc4c5c(cccc53)CC4)s2)cc(OC)c1OC [MMV396665] | 103 | 102
Cc1[nH]c(-c2ccc(F)cc2)cc1C(=O)NC1CCN(Cc2ccccc2)CC1 [MMV019738] | 109 | 95.2
COc1cccc(NC(=O)Cn2c(C)c(C#N)c3ccccc32)c1 [MMV665826] | 101 | 109
Oc1ccc(Br)cc1CN1CCN(Cc2cccc(F)c2)CC1 [MMV000356] | 101 | 98.9
COc1ccc(CCN2C(=O)c3[nH]nc(-c4cc(Cl)c(C)cc4O)c3C2c2ccccc2F)cc1 (centres unmarked) [MMV396717] | 96.5 | 80.3
Cc1cc(C=C2SC(=Nc3ccccc3)N(C3CCCC3)C2=O)c(C)n1-c1ccc(Cl)cc1 [MMV666688] | 99.9 | 98.7
CC1CCCCN1CCCNC(=O)c1ccc2c(c1)sc1nc(-c3ccc(F)cc3)cn12 (centres unmarked) [MMV000634] | 94.7 | 67.5
CCCc1c(C)nc2ccc(Br)cc2c1O [MMV666095] | 104 | 113
O=C(Nc1ccc(-c2nc3cc4ccccc4cc3[nH]2)cc1)c1cccc(Br)c1 [MMV019241] | 103 | 113
O=C(Nc1cccc(C(F)(F)F)c1)c1cc(Cl)ccc1O [MMV665807] | 99 | 105
COc1cccc(Cn2c(Oc3ccccc3)nc3c2c(=O)n(C)c(=O)n3C)c1 [MMV396705] | 102 | 101
COc1cc(C(=O)ON=C(N)Cc2cccc3ccccc23)cc(OC)c1OC [MMV666687] | 106 | 104
COc1ccc(C2c3ccc4ccccc4c3Oc3ncn(CCCn4ccnc4)c(=N)c32)cc1OC (centres unmarked) [MMV667490] | 102 | 98.4
CCOc1ccc(Nc2ccnc3cc(Cl)ccc23)cc1 [MMV007285] | 107 | 102
Cc1cc(Nc2ccc(Cl)cc2)n2nc(C(F)(F)F)nc2n1 [MMV011256] | 111 | 109
CCOc1cc(Cl)c(C(C)NC(=O)c2cccc(OC)c2)cc1OCC (centres unmarked) [MMV665803] | 113 | 124
O=[N+]([O-])c1ccc(C=NNc2nc3ccccc3[nH]2)cc1 [MMV666607] | 103 | 102
CCOc1cc2c(cc1OCC)C(c1cc(C)c(O)c(C)c1)NCC2 (centres unmarked) [MMV000483] | 103 | 102
O=C(Nc1ccc(N2CCN(Cc3ccccc3)CC2)cc1)c1cccs1 [MMV019670] | 113 | 112
CCOC(=O)c1ccc2nc(-c3ccccc3)cc(O)c2c1 [MMV006457] | 104 | 93.7
CC(=O)NCCc1nc2ccccc2n1Cc1ccc(C(C)C)cc1 [MMV007617] | 95.2 | 82.1
